{"source": "PubChem BioAssay AID2060508", "about": "(Molecular Pharmacology Branch, DTP, NCI, 2025);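 further: spheroids exposed to compounds for seven days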;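 on viability, T/C: 100% = DMSO vehicle control viability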", "tested_on": "454973-116-R2-J3-PDC spheroids, viability, % test/control", "experiment": "Anticancer human tumor 454973-116-R2-J3-PDC patient-derived pancreatic carcinoma cell line growth inhibition [GQUAD]", "details": "spheroids with HUVEC and MSC; for IC50: curve of first compound; for viability, T/C: stronger effect = lower value", "summary_of_the_method": "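Multi-cell-type spheroids of tumor cells with HUVEC and mesenchymal stem cells, treated with drug combinations. Concentrations descend in half-log steps from near clinical Cmax, or from 10 microM where Cmax is unknown; viability read-out.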", "key": {"[1]": {"details": "second compound 0.0316 µM, first compound 0.0316 µM"}, "[2]": {"details": "second compound 0.0316 µM, first compound 0.1 µM"}, "[3]": {"details": "second compound 0.0316 µM, first compound 0.316 µM"}, "[4]": {"details": "second compound 0.0316 µM, first compound 1 µM"}, "[5]": {"details": "second compound 0.0316 µM, first compound 3.16 µM"}, "[6]": {"details": "second compound 0.0316 µM, first compound 10 µM"}, "[7]": {"details": "second compound 0.1 µM, first compound 0.0316 µM"}, "[8]": {"details": "second compound 0.1 µM, first compound 0.1 µM"}, "[9]": {"details": "second compound 0.1 µM, first compound 0.316 µM"}, "[10]": {"details": "second compound 0.1 µM, first compound 1 µM"}, "[11]": {"details": "second compound 0.1 µM, first compound 3.16 µM"}, "[12]": {"details": "second compound 0.1 µM, first compound 10 µM"}, "[13]": {"details": "second compound 0.316 µM, first compound 0.0316 µM"}, "[14]": {"details": "second compound 0.316 µM, first compound 0.1 µM"}, "[15]": {"details": "second compound 0.316 µM, first compound 0.316 µM"}, "[16]": {"details": "second compound 0.316 µM, first compound 1 µM"}, "[17]": {"details": "second compound 0.316 µM, first compound 3.16 µM"}, "[18]": {"details": "second compound 0.316 µM, first compound 10 µM"}, "[19]": {"details": "second compound 1 µM, first compound 0.0316 µM"}, "[20]": {"details": "second compound 1 µM, first compound 0.1 µM"}, "[21]": {"details": "second compound 1 µM, first compound 0.316 µM"}, "[22]": {"details": "second compound 1 µM, first compound 1 µM"}, "[23]": {"details": "second compound 1 µM, first compound 3.16 µM"}, "[24]": {"details": "second compound 1 µM, first compound 10 µM"}, "[25]": {"details": "second compound 3.16 µM, first compound 0.0316 µM"}, "[26]": {"details": "second compound 3.16 µM, first compound 0.1 µM"}, "[27]": {"details": "second compound 3.16 µM, first compound 0.316 µM"}, "[28]": {"details": "second compound 3.16 µM, first compound 1 µM"}, "[29]": {"details": "second compound 3.16 µM, first compound 3.16 µM"}, "[30]": {"details": "second compound 3.16 µM, first compound 10 µM"}, "[31]": {"details": "second compound 10 µM, first compound 0.0316 µM"}, "[32]": {"details": "second compound 10 µM, first compound 0.1 µM"}, "[33]": {"details": "second compound 10 µM, first compound 0.316 µM"}, "[34]": {"details": "second compound 10 µM, first compound 1 µM"}, "[35]": {"details": "second compound 10 µM, first compound 3.16 µM"}, "[36]": {"details": "second compound 10 µM, first compound 10 µM"}}}
{"smiles": "C#Cc1c(F)ccc2cc(O)cc(-c3ncc4c(N5CC6CCC(C5)N6)nc(OCC56CCCN5CC(F)C6)nc4c3F)c12", "note": "(centres undefined) + Cc1cnc(CNC(=O)c2c(=O)c3ccc(N4CCCN(C)CC4)nc3n3c2sc2ccccc23)cn1", "values": [{"measurement": "IC50", "setting": "second compound 0.0316 µM", "result": "< 31.6", "unit": "nM"}, {"measurement": "IC50", "setting": "second compound 0.1 µM", "result": "< 31.6", "unit": "nM"}, {"measurement": "IC50", "setting": "second compound 0.316 µM", "result": "< 31.6", "unit": "nM"}, {"measurement": "IC50", "setting": "second compound 1 µM", "result": "< 31.6", "unit": "nM"}, {"measurement": "IC50", "setting": "second compound 3.16 µM", "result": "< 31.6", "unit": "nM"}, {"measurement": "IC50", "setting": "second compound 10 µM", "result": "< 31.6", "unit": "nM"}, {"measurement": "viability, T/C", "setting": "[1]", "result": 45.9, "unit": "%"}, {"measurement": "viability, T/C", "setting": "[2]", "result": 40.8, "unit": "%"}, {"measurement": "viability, T/C", "setting": "[3]", "result": 28.3, "unit": "%"}, {"measurement": "viability, T/C", "setting": "[4]", "result": 23.2, "unit": "%"}, {"measurement": "viability, T/C", "setting": "[5]", "result": 20.3, "unit": "%"}, {"measurement": "viability, T/C", "setting": "[6]", "result": 17.8, "unit": "%"}, {"measurement": "viability, T/C", "setting": "[7]", "result": 41.9, "unit": "%"}, {"measurement": "viability, T/C", "setting": "[8]", "result": 33.3, "unit": "%"}, {"measurement": "viability, T/C", "setting": "[9]", "result": 24, "unit": "%"}, {"measurement": "viability, T/C", "setting": "[10]", "result": 20.1, "unit": "%"}, {"measurement": "viability, T/C", "setting": "[11]", "result": 17.1, "unit": "%"}, {"measurement": "viability, T/C", "setting": "[12]", "result": 16.1, "unit": "%"}, {"measurement": "viability, T/C", "setting": "[13]", "result": 41.7, "unit": "%"}, {"measurement": "viability, T/C", "setting": "[14]", "result": 24.4, "unit": "%"}, {"measurement": "viability, T/C", "setting": "[15]", "result": 17.4, "unit": "%"}, {"measurement": "viability, T/C", "setting": "[16]", "result": 17.1, "unit": "%"}, {"measurement": "viability, T/C", "setting": "[17]", "result": 14.3, "unit": "%"}, {"measurement": "viability, T/C", "setting": "[18]", "result": 11.4, "unit": "%"}, {"measurement": "viability, T/C", "setting": "[19]", "result": 36.6, "unit": "%"}, {"measurement": "viability, T/C", "setting": "[20]", "result": 24.2, "unit": "%"}, {"measurement": "viability, T/C", "setting": "[21]", "result": 19, "unit": "%"}, {"measurement": "viability, T/C", "setting": "[22]", "result": 16.5, "unit": "%"}, {"measurement": "viability, T/C", "setting": "[23]", "result": 13.2, "unit": "%"}, {"measurement": "viability, T/C", "setting": "[24]", "result": 10.7, "unit": "%"}, {"measurement": "viability, T/C", "setting": "[25]", "result": 36.5, "unit": "%"}, {"measurement": "viability, T/C", "setting": "[26]", "result": 22.6, "unit": "%"}, {"measurement": "viability, T/C", "setting": "[27]", "result": 19.3, "unit": "%"}, {"measurement": "viability, T/C", "setting": "[28]", "result": 12.6, "unit": "%"}, {"measurement": "viability, T/C", "setting": "[29]", "result": 9.16, "unit": "%"}, {"measurement": "viability, T/C", "setting": "[30]", "result": 4.35, "unit": "%"}, {"measurement": "viability, T/C", "setting": "[31]", "result": 0.16, "unit": "%"}, {"measurement": "viability, T/C", "setting": "[32]", "result": 0.43, "unit": "%"}, {"measurement": "viability, T/C", "setting": "[33]", "result": 0.47, "unit": "%"}, {"measurement": "viability, T/C", "setting": "[34]", "result": 0.12, "unit": "%"}, {"measurement": "viability, T/C", "setting": "[35]", "result": 0.27, "unit": "%"}, {"measurement": "viability, T/C", "setting": "[36]", "result": 0.18, "unit": "%"}]}
{"smiles": "CC(=O)O[C@H]1C(=O)[C@@]2(C)[C@H]([C@H](OC(=O)c3ccccc3)[C@]3(O)C[C@H](OC(=O)[C@H](O)[C@@H](NC(=O)c4ccccc4)c4ccccc4)C(C)=C1C3(C)C)[C@]1(OC(C)=O)CO[C@@H]1C[C@@H]2O", "note": "+ Cc1cnc(CNC(=O)c2c(=O)c3ccc(N4CCCN(C)CC4)nc3n3c2sc2ccccc23)cn1", "values": [{"measurement": "IC50", "setting": "second compound 0.0316 µM", "result": "< 31.6", "unit": "nM"}, {"measurement": "IC50", "setting": "second compound 0.1 µM", "result": "< 31.6", "unit": "nM"}, {"measurement": "IC50", "setting": "second compound 0.316 µM", "result": "< 31.6", "unit": "nM"}, {"measurement": "IC50", "setting": "second compound 1 µM", "result": "< 31.6", "unit": "nM"}, {"measurement": "IC50", "setting": "second compound 3.16 µM", "result": "< 31.6", "unit": "nM"}, {"measurement": "IC50", "setting": "second compound 10 µM", "result": "< 31.6", "unit": "nM"}, {"measurement": "viability, T/C", "setting": "[1]", "result": 17.2, "unit": "%"}, {"measurement": "viability, T/C", "setting": "[2]", "result": 12.7, "unit": "%"}, {"measurement": "viability, T/C", "setting": "[3]", "result": 10.7, "unit": "%"}, {"measurement": "viability, T/C", "setting": "[4]", "result": 7.9, "unit": "%"}, {"measurement": "viability, T/C", "setting": "[5]", "result": 9.07, "unit": "%"}, {"measurement": "viability, T/C", "setting": "[6]", "result": 11.3, "unit": "%"}, {"measurement": "viability, T/C", "setting": "[7]", "result": 20.6, "unit": "%"}, {"measurement": "viability, T/C", "setting": "[8]", "result": 16.3, "unit": "%"}, {"measurement": "viability, T/C", "setting": "[9]", "result": 9.56, "unit": "%"}, {"measurement": "viability, T/C", "setting": "[10]", "result": 9.77, "unit": "%"}, {"measurement": "viability, T/C", "setting": "[11]", "result": 11.2, "unit": "%"}, {"measurement": "viability, T/C", "setting": "[12]", "result": 15.5, "unit": "%"}, {"measurement": "viability, T/C", "setting": "[13]", "result": 27.5, "unit": "%"}, {"measurement": "viability, T/C", "setting": "[14]", "result": 17.2, "unit": "%"}, {"measurement": "viability, T/C", "setting": "[15]", "result": 17.9, "unit": "%"}, {"measurement": "viability, T/C", "setting": "[16]", "result": 15.7, "unit": "%"}, {"measurement": "viability, T/C", "setting": "[17]", "result": 15.3, "unit": "%"}, {"measurement": "viability, T/C", "setting": "[18]", "result": 19.6, "unit": "%"}, {"measurement": "viability, T/C", "setting": "[19]", "result": 33.9, "unit": "%"}, {"measurement": "viability, T/C", "setting": "[20]", "result": 28.3, "unit": "%"}, {"measurement": "viability, T/C", "setting": "[21]", "result": 23.3, "unit": "%"}, {"measurement": "viability, T/C", "setting": "[22]", "result": 25.7, "unit": "%"}, {"measurement": "viability, T/C", "setting": "[23]", "result": 24.8, "unit": "%"}, {"measurement": "viability, T/C", "setting": "[24]", "result": 30.4, "unit": "%"}, {"measurement": "viability, T/C", "setting": "[25]", "result": 42.4, "unit": "%"}, {"measurement": "viability, T/C", "setting": "[26]", "result": 36.2, "unit": "%"}, {"measurement": "viability, T/C", "setting": "[27]", "result": 32.1, "unit": "%"}, {"measurement": "viability, T/C", "setting": "[28]", "result": 26.5, "unit": "%"}, {"measurement": "viability, T/C", "setting": "[29]", "result": 34.1, "unit": "%"}, {"measurement": "viability, T/C", "setting": "[30]", "result": 37.1, "unit": "%"}, {"measurement": "viability, T/C", "setting": "[31]", "result": 0.12, "unit": "%"}, {"measurement": "viability, T/C", "setting": "[32]", "result": 1.08, "unit": "%"}, {"measurement": "viability, T/C", "setting": "[33]", "result": 0.19, "unit": "%"}, {"measurement": "viability, T/C", "setting": "[34]", "result": 0.17, "unit": "%"}, {"measurement": "viability, T/C", "setting": "[35]", "result": 0.19, "unit": "%"}, {"measurement": "viability, T/C", "setting": "[36]", "result": 0.21, "unit": "%"}]}
